Test system: human IL-25
Assay: 3-D culture, western blot of IL-25 in WI38 fibroblasts and WI38-CM
Type: cell-based
Experimental: To mimic the tumor microenvironment, a 3-dimensional (3-D) co-culture system was employed for the maintenance of mammary tumor cells and tumor-associated fibroblasts in adjacent collagen gels as reported in Rajan et al., Nature protocols, 1, 2753-2758 (2006). More specifically, rat tail collagen solution dissolved in acetic acid was neutralized by 1 N NaOH and then mixed with 10×PBS at 4° C. in a ratio of 9:1. To construct solid tumor-like cell mass, mouse (4T1 or TS/A cells) or human (MCF-7 or MDA-MB-231 cells) mammary tumor cells in each correspondent culture medium (1×10^6 cells/ml) were mixed with 4 mg/ml collagen solution in a ratio of 1:1. Four drops of collagen-tumor cell mixture ([…]) were immediately and separately loaded on culture substratum in each well of a 6-well plate. The plates were then turned-over and kept in CO2 incubator at 37° C. for collagen gelation. […]
To pull down and deplete IL-25 protein molecules in 3T3 or MDA-MB-231 cell conditioned media, the Dynabeads antibody coupling kit (Life Technology; 14311D) was used according to the manufacturer's recommendations, yielding 10 mg/ml anti-IL25 antibody (ProteinTech, Chicago, Ill.)-coupled beads. […] The antibody-pulled down proteins from 3T3-CM, NHDF-CM or WI38-CM, were detected for the content of secreted IL-25 protein in each conditioned medium using western blot analysis. […]

## COC(=O)/C=C/c1cc(O)c2c(c1)C(C(=O)OC)C(c1ccc(O)c(O)c1)O2 (centres unmarked) [Q2-3, methyl(E)-3-[2-(3,4-dihydroxyphenyl)-7-hydroxy-3-methoxycarbonyl-2,3-dihydro-1-benzofuran-5yl]-prop-2-enoate]
3-D culture, treatment 24 h or 72 h
  expression of IL-25 in human (WI38) fibroblasts: increased
WI38-CM
  level of secreted IL-25 in fibroblast-conditioned medium vs untreated: significantly higher
